Measured values: ChEMBL document CHEMBL3046841, “The synthesis and screening of the antimicrobial activity of some novel 3-(furan-2-yl)-1-(aryl)-3-(phenylthio) propan-1-one derivatives” (2011)
Values after ≈ are worked out from the molar mass of the structure shown.

How the values were obtained:
Type in all cases: functional
Streptococcus pyogenes [1] = experiment: Antimicrobial activity against Streptococcus pyogenes ATCC 176 after 24 hr by serial microdilution method; details: ATCC 176, 24 h
Bacillus subtilis [2] = experiment: Antimicrobial activity against Bacillus subtilis ATCC 6633 after 24 hr by serial microdilution method; details: ATCC 6633, 24 h
Proteus vulgaris [3] = experiment: Antimicrobial activity against Proteus vulgaris KUEN 1329 after 24 hr by serial microdilution method; details: KUEN 1329, 24 h
Salmonella enteritidis [4] = experiment: Antimicrobial activity against Salmonella enterica subsp. enterica serovar Enteritidis ATCC 13076 at 105 ug/disk after 24 hr by disk diffusion method; details: ATCC 13076, 24 h, read-out: IZ
Candida albicans [5] = experiment: Antimicrobial activity against Candida albicans ATCC 1213 by serial microdilution method
Pseudomonas aeruginosa [6] = experiment: Antimicrobial activity against Pseudomonas aeruginosa ATCC 9027 after 24 hr by serial microdilution method; details: ATCC 9027, 24 h
Staphylococcus aureus [7] = experiment: Antimicrobial activity against Staphylococcus aureus ATCC 29213 at 105 ug/disc after 24 hr by disk diffusion method; details: ATCC 29213, 24 h, read-out: IZ
Candida albicans [8] = experiment: Antimicrobial activity against Candida albicans ATCC 1213 at 105 ug/disk after 48 hr by disk diffusion method; details: ATCC 1213, 48 h, read-out: IZ
Pseudomonas aeruginosa [9] = experiment: Antimicrobial activity against Pseudomonas aeruginosa ATCC 9027 at 105 ug/disk after 24 hr by disk diffusion method; details: ATCC 9027, 24 h, read-out: IZ
Escherichia coli [10] = experiment: Antimicrobial activity against Escherichia coli 111 after 24 hr by serial microdilution method; details: Escherichia coli, 111, 24 h
Staphylococcus aureus [11] = experiment: Antimicrobial activity against Staphylococcus aureus ATCC 29213 after 24 hr by serial microdilution method; details: ATCC 29213, 24 h
Bacillus subtilis [12] = experiment: Antimicrobial activity against Bacillus subtilis ATCC 6633 at 105 ug/disk after 24 hr by disk diffusion method; details: ATCC 6633, 24 h, read-out: IZ
Pseudomonas aeruginosa [13] = experiment: Antimicrobial activity against Pseudomonas aeruginosa ATCC 27859 after 24 hr by serial microdilution method; details: ATCC 27859, 24 h
Cyberlindnera jadinii [14] = experiment: Antimicrobial activity against Cyberlindnera jadinii KUEN 1031 at 105 ug/disc after 48 hr by disk diffusion method; details: Williopsis jadinii, KUEN 1031, 48 h; read-out: IZ
Cyberlindnera jadinii [15] = experiment: Antimicrobial activity against Cyberlindnera jadinii KUEN 1031 serial microdilution method; details: Williopsis jadinii
Salmonella enteritidis [16] = experiment: Antimicrobial activity against Salmonella enterica subsp. enterica serovar Enteritidis ATCC 13076 after 24 hr by serial microdilution method; details: ATCC 13076, 24 h
Proteus vulgaris [17] = experiment: Antimicrobial activity against Proteus vulgaris KUEN 1329 at 105 ug/disk after 24 hr by disk diffusion method; details: KUEN 1329, 24 h, read-out: IZ
Streptococcus pyogenes [18] = experiment: Antimicrobial activity against Streptococcus pyogenes ATCC 176 at 105 ug/disc after 24 hr by disc diffusion method; details: ATCC 176, 24 h, read-out: IZ
Bacillus cereus [19] = experiment: Antimicrobial activity against Bacillus cereus DSM 4312 at 105 ug/disk after 24 hr by disk diffusion method; details: DSM 4312, 24 h, read-out: IZ
Bacillus cereus [20] = experiment: Antimicrobial activity against Bacillus cereus DSM 4312 after 24 hr by serial microdilution method; details: DSM 4312, 24 h
Pseudomonas aeruginosa [21] = experiment: Antimicrobial activity against Pseudomonas aeruginosa ATCC 27859 at 105 ug/disk after 24 hr by disk diffusion method; details: ATCC 27859, 24 h, read-out: IZ
Escherichia coli [22] = experiment: Antimicrobial activity against Escherichia coli 111 at 105 ug/disk after 24 hr by disk diffusion method; details: Escherichia coli, 111, 24 h; read-out: IZ

Row | SMILES | MIC (Streptococcus pyogenes [1]) | MIC (Bacillus subtilis [2]) | MIC (Proteus vulgaris [3]) | zone of inhibition at 105 µg/disc (Salmonella enteritidis [4]) | MIC (Candida albicans [5]) | MIC (Pseudomonas aeruginosa [6]) | zone of inhibition at 105 µg/disc (Staphylococcus aureus [7]) | zone of inhibition at 105 µg/disc (Candida albicans [8]) | zone of inhibition at 105 µg/disc (Pseudomonas aeruginosa [9]) | MIC (Escherichia coli [10]) | MIC (Staphylococcus aureus [11]) | zone of inhibition at 105 µg/disc (Bacillus subtilis [12]) | MIC (Pseudomonas aeruginosa [13]) | zone of inhibition at 105 µg/disc (Cyberlindnera jadinii [14]) | MIC (Cyberlindnera jadinii [15]) | MIC (Salmonella enteritidis [16]) | zone of inhibition at 105 µg/disc (Proteus vulgaris [17]) | zone of inhibition at 105 µg/disc (Streptococcus pyogenes [18]) | zone of inhibition at 105 µg/disc (Bacillus cereus [19]) | MIC (Bacillus cereus [20]) | further results
1 | O=C(CC(Sc1ccccc1)c1ccco1)c1ccccc1O (stereo not given) | 3.9 µg/mL (≈ 12 µM) | 15.6 µg/mL (≈ 48.2 µM) | 7.81 µg/mL (≈ 24.1 µM) | 19 mm | 125 µg/mL (≈ 385 µM) | > 125 µg/mL | 16 mm | 21 mm | 14 mm | 15.6 µg/mL (≈ 48.2 µM) | 15.6 µg/mL (≈ 48.2 µM) | 17 mm | 125 µg/mL (≈ 385 µM) | 15 mm | 7.81 µg/mL (≈ 24.1 µM) | 31.2 µg/mL (≈ 96.3 µM) | 18 mm | 17 mm | 15 mm | 15.6 µg/mL (≈ 48.2 µM) | zone of inhibition at 105 µg/disc (Pseudomonas aeruginosa [21]): 17 mm
2 | O=C(CC(Sc1ccccc1)c1ccco1)c1ccccc1Br (stereo not given) | > 125 µg/mL | 31.2 µg/mL (≈ 80.7 µM) | 62.5 µg/mL (≈ 161 µM) | 15 mm | > 125 µg/mL | > 125 µg/mL | 17 mm | 17 mm | 15 mm | 62.5 µg/mL (≈ 161 µM) | 7.81 µg/mL (≈ 20.2 µM) | 15 mm | 31.2 µg/mL (≈ 80.7 µM) | 15 mm | > 125 µg/mL | > 125 µg/mL | 16 mm | 13 mm | 12 mm | 31.2 µg/mL (≈ 80.7 µM) | zone of inhibition at 105 µg/disc (Escherichia coli [22]): 10 mm; zone of inhibition at 105 µg/disc (Pseudomonas aeruginosa [21]): 16 mm
3 | O=C(CC(Sc1ccccc1)c1ccco1)c1cccc(Cl)c1 (stereo not given) | 31.2 µg/mL (≈ 91.1 µM) | 31.2 µg/mL (≈ 91.1 µM) | 31.2 µg/mL (≈ 91.1 µM) | 19 mm | 15.6 µg/mL (≈ 45.6 µM) | 15.6 µg/mL (≈ 45.6 µM) | 16 mm | 17 mm | 15 mm | > 125 µg/mL | 31.2 µg/mL (≈ 91.1 µM) | 14 mm | 62.5 µg/mL (≈ 182 µM) | 15 mm | 15.6 µg/mL (≈ 45.6 µM) | 15.6 µg/mL (≈ 45.6 µM) | 17 mm | 14 mm | 11 mm | 31.2 µg/mL (≈ 91.1 µM) | zone of inhibition at 105 µg/disc (Pseudomonas aeruginosa [21]): 16 mm
4 | CN(C)[C@@H]1C(O)=C(C(N)=O)C(=O)[C@@]2(O)C(O)=C3C(=O)c4c(O)cccc4[C@@](C)(O)[C@H]3C[C@@H]12 [TETRACYCLINE] | 3.9 µg/mL (≈ 8.78 µM) | 15.6 µg/mL (≈ 35.1 µM) | 3.9 µg/mL (≈ 8.78 µM) |  | 125 µg/mL (≈ 281 µM) | 3.9 µg/mL (≈ 8.78 µM) |  |  |  | 125 µg/mL (≈ 281 µM) | 125 µg/mL (≈ 281 µM) |  | > 125 µg/mL |  | 15.6 µg/mL (≈ 35.1 µM) | 7.81 µg/mL (≈ 17.6 µM) |  |  |  | 62.5 µg/mL (≈ 141 µM) | 
5 | COc1ccc(C(=O)CC(Sc2ccccc2)c2ccco2)cc1 (stereo not given) | > 125 µg/mL | 125 µg/mL (≈ 369 µM) | 62.5 µg/mL (≈ 185 µM) |  | > 125 µg/mL | 62.5 µg/mL (≈ 185 µM) |  | 12 mm | 13 mm | 62.5 µg/mL (≈ 185 µM) | > 125 µg/mL |  | 62.5 µg/mL (≈ 185 µM) | 12 mm | 125 µg/mL (≈ 369 µM) | > 125 µg/mL |  | 13 mm |  | 62.5 µg/mL (≈ 185 µM) | zone of inhibition at 105 µg/disc (Escherichia coli [22]): 10 mm
6 | O=C(CC(Sc1ccccc1)c1ccco1)c1cccc(Br)c1 (stereo not given) | 31.2 µg/mL (≈ 80.7 µM) | 31.2 µg/mL (≈ 80.7 µM) | 31.2 µg/mL (≈ 80.7 µM) | 16 mm | > 125 µg/mL | 15.6 µg/mL (≈ 40.3 µM) | 16 mm | 16 mm | 16 mm | > 125 µg/mL | 15.6 µg/mL (≈ 40.3 µM) |  | > 125 µg/mL | 14 mm | > 125 µg/mL | 31.2 µg/mL (≈ 80.7 µM) | 15 mm |  | 13 mm | 31.2 µg/mL (≈ 80.7 µM) | 
7 | CO/N=C(\C(=O)N[C@@H]1C(=O)N2C(C(=O)O)=C(CSc3nc(=O)c(O)nn3C)CS[C@H]12)c1csc(N)n1 [CEFTRIAXONE] | 3.9 µg/mL (≈ 7.03 µM) | 3.9 µg/mL (≈ 7.03 µM) | 15.6 µg/mL (≈ 28.2 µM) |  | > 125 µg/mL | 15.6 µg/mL (≈ 28.2 µM) |  |  |  | > 125 µg/mL | > 125 µg/mL |  | > 125 µg/mL |  | 15.6 µg/mL (≈ 28.2 µM) | 125 µg/mL (≈ 225 µM) |  |  |  | > 125 µg/mL | 
